From PubChem BioAssay (NCI)
Where “and” joins values, the source holds several entries; their conditions need not be identical. Equal entries are not always repeated.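 Dose response: 5 concentrations. Exposure: 48 h. Format: 96-well plates. Endpoint: linear interpolation; highest concentration if not reached. GI50 is the concentration that inhibits growth by half. Definition used: TGI = concentration required for complete inhibition of growth.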

Assays:
Experiment in all cases: NCI tumour cell line growth inhibition, 48 h
[1] = system: U251 CNS
[2] = system: RPMI-8226 leukemia
[3] = system: NCI/ADR-RES ovarian
[4] = system: A498 renal
[5] = system: HT29 colon
[6] = system: SW-620 colon
[7] = system: SR leukemia
[8] = system: SNB-75 CNS
[9] = system: NCI-H23 lung
[10] = system: COLO 205 colon

| Compound | GI50 [1] | TGI [1] | GI50 [2] | TGI [2] | GI50 [3] | TGI [3] [µM] | GI50 [4] | TGI [4] | GI50 [5] | TGI [5] | GI50 [6] | TGI [6] | GI50 [7] | TGI [7] | GI50 [8] | TGI [8] | GI50 [9] | TGI [9] | GI50 [10] | TGI [10] |
| --- | --- | --- | --- | --- | --- | --- | --- | --- | --- | --- | --- | --- | --- | --- | --- | --- | --- | --- | --- | --- |
| CCCN(CCC)C(=O)[C@H](CC)[C@@H]1CC[C@@H](C)[C@@H]([C@H](C)[C@@H](O)[C@@H](C)C(=O)[C@H](CC)C2O[C@]3(C=C[C@@H](O)[C@]4(CC[C@@](C)([C@H]5CC[C@](O)(CC)[C@H](C)O5)O4)O3)[C@H](C)C[C@@H]2C)O1 (stereo partly drawn) | 2.87 µM | 9.87 µM | 1.77 µM | 6.06 µM | 2.93 µM | 10.3 | 2.13 µM | 5.85 µM | 3.1 µM | 12.7 µM | 3.23 µM | 10.6 µM | 2.49 µM | 7.35 µM | 1.73 µM | 14.4 µM | 2.52 µM | 7.01 µM | – | – |
| COc1cccc2c(=O)c3c(sc12)c(NCCN(C)C)nc1ccccc13 | 1.29 µM | 2.74 µM | 1.36 µM | 3.17 µM | 1.31 µM | 3.03 | 1.49 µM | 2.93 µM | 0.648 µM | 2.12 µM | 0.76 µM | 2.3 µM | 0.612 µM | 2.45 µM | 1.47 µM | 8.53 µM | 1.51 µM | 3.16 µM | 1.2 µM | 2.86 µM |
| COc1cc([N+](=O)[O-])c(OC)cc1-c1nc2sc(Cl)cn2c1/C=N/NC(=N)N/N=C/c1c(-c2cc(OC)c([N+](=O)[O-])cc2OC)nc2sc(Cl)cn12 | – | – | – | – | > 100 µM | > 100 | 1.7 µM | 3.13 µM | 3.78 µM | > 100 µM | 1.85 µM | 3.55 µM | – | – | – | – | – | – | 1.89 µM | 4.08 µM |
| CC1=C(C(=O)Nc2ccc(F)c(Cl)c2)C(c2cccc(Oc3ccccc3)c2)NC(=O)N1 (stereo not drawn) | 13.4 µM | 26.2 µM | 8.51 µM | 26.3 µM | 19 µM | 37.2 | 10.5 µM | 23.4 µM | 12 µM | 24.5 µM | 18.2 µM | 38.2 µM | – | – | 7.53 µM | 20.4 µM | 15.4 µM | 28.8 µM | 14.2 µM | 29.6 µM |
| Cc1nn(-c2nc3ccccc3[nH]2)c2c1C(c1ccc3c(c1)OCO3)CC(=O)N2 (stereo not drawn) | 2.14 µM | 4.79 µM | 2.22 µM | 5.02 µM | 4.43 µM | > 100 | 1.61 µM | 4.42 µM | 3.01 µM | > 23.6 µM | 2.86 µM | 9.63 µM | 2.82 µM | > 24.9 µM | 2.69 µM | 8.09 µM | 2.13 µM | 4.72 µM | 2.11 µM | 4.15 µM |
| Clc1ccc2c(c1)-c1ccccc1C1=NCCN12 | 1.98 µM | 7.14 µM | 1.91 µM | 4.36 µM | 1.6 µM | 4.8 | – | – | 1.17 µM | 3.6 µM | 1.11 µM | 6.53 µM | 1.55 µM | 4.13 µM | 1.62 µM | 5.42 µM | 1.85 µM | 4.75 µM | 1.61 µM | 3.54 µM |
| COc1ccc(/C=C/C(=O)c2cc3c(N)c(C(=O)Nc4ccccc4)sc3nc2C)cc1 | 0.325 µM | 8.24 µM | 0.34 µM | > 10.8 µM | 0.121 µM | – | 0.114 µM | 0.487 µM | 0.179 µM | > 26.6 µM | 0.216 µM | 11.7 µM | 0.207 µM | > 50 µM | 0.0933 µM | – | 0.227 µM | – | – | – |
| CS(=O)(=O)Nc1cc(-c2ccc3ncnc(Nc4ccc5c(cnn5Cc5ccccc5F)c4)c3c2)cnc1Cl | 2.11 µM | 14.4 µM | 1.64 µM | 4.18 µM | 8.32 µM | > 100 | 1.05 µM | 3.71 µM | 1.6 µM | > 47.3 µM | 1.94 µM | > 35.9 µM | 3.86 µM | > 100 µM | 0.157 µM | 2.4 µM | 2.81 µM | > 100 µM | 2.39 µM | 9.09 µM |
| Clc1nc(Cl)c(Cc2ccccc2)c(Cl)n1 | – | 33.8 µM | – | > 100 µM | – | > 100 | – | – | – | 25.3 µM | – | > 100 µM | – | > 100 µM | – | 22.5 µM | – | 37.5 µM | – | 22.6 µM |
| CNc1nc(N(C)C)nc(N(C)C)n1 | > 100 µM and 1150 µM | > 100 µM and 2950 µM | > 100 µM and 1500 µM | > 100 µM and 2940 µM | – | 2650 | > 100 µM and 1300 µM | > 100 µM and 2970 µM | > 100 µM and 518 µM | > 100 µM and 3650 µM | > 100 µM and 1870 µM | > 100 µM and 4030 µM | > 100 µM | > 100 µM | > 100 µM and 473 µM | > 100 µM and 1980 µM | > 100 µM and 650 µM | > 100 µM and 1830 µM | > 100 µM and 1780 µM | > 100 µM and 4010 µM |
| N#CC1=C(N)Oc2c(sc3c(F)cccc23)C1c1ccc(F)cc1 (stereo not drawn) | 0.569 µM | 15.3 µM | 1.05 µM | 14.7 µM | 0.375 µM | 4.36 | 0.15 µM | 0.909 µM | 1.62 µM | 12.5 µM | 0.531 µM | 16.3 µM | – | – | 0.338 µM | 14.9 µM | 1.45 µM | 14.8 µM | 2.83 µM | 13.2 µM |
| CC1/C(=N/Nc2ccc([N+](=O)[O-])cc2)CC2C3(C)CCC2(C(C)C(=O)O)C(=O)C13 (stereo not drawn) | 30.2 µM | > 100 µM | 2.95 µM | 24 µM | 5.7 µM | > 100 | 0.85 µM | 41.9 µM | 6.18 µM | > 100 µM | 49.4 µM | > 100 µM | – | – | > 100 µM | > 100 µM | 29.1 µM | > 100 µM | 9 µM | > 100 µM |
| Cc1ccc(S(=O)(=O)Nc2nc3ccccc3nc2Nc2ccc3nsnc3c2)cc1 | 3.26 µM and 3.65 µM | > 100 µM | 0.85 µM and 2.64 µM | 21.2 µM and > 100 µM | 3.2 µM and 3.52 µM | > 100 | 4.85 µM and 2.86 µM | > 100 µM | 6.78 µM and 3.1 µM | > 100 µM | 7.95 µM and 5.22 µM | > 100 µM | 7.87 µM and 4.49 µM | 95.4 µM and > 100 µM | 8.81 µM and 3.89 µM | > 100 µM | 2.78 µM and 2.93 µM | 44.5 µM and > 100 µM | 5.81 µM and 9.83 µM | 23.6 µM and > 100 µM |
